Consider one compound from patent publication US20250228765A1, “TREATING KNEE JOINT PAIN BY INJECTING RESIN[…] ULTRA LOW DOSES” (Gruenenthal GmbH, priority 2024, published 2025).

Series [1] concerns chronic osteoarthritic knee joint pain. Briefly: Randomized, double-blind, placebo-controlled single-dose human study: analgesic effect of intraarticular injection. It counts as in vivo. Particulars: for mean (SD) absolute reduction of visual analog scale score, pain on motion: 6 months, VAS 0-100 mm, placebo 28.26. How it is done: In a human study, two pharmaceutical dosage forms according to the invention were used comprising Resiniferatoxin (100 or 400 ng) in an aqueous ethanolic solution additionally containing polysorbate 80 (Tween® 80) as surfactant, trometamol as buffer and a combination of NaCl, KCl, and CaCl2) as inorganic salts.
(§1) The primary objective of this study was to compare the analgesic effects of single intraarticular injections of Resiniferatoxin (100 or 400 ng) compared to placebo, at 3 and 6 months postinjection, in participants with chronic osteoarthritic knee joint pain. Secondary objectives were to evaluate the analgesic effects of Resiniferatoxin versus placebo in terms of a responder analysis (percentage of subjects achieving ≥50% or ≥70% reduction in visual analog scale pain score) and changes in Western Ontario and McMaster Universities Arthritis Index (WOMAC) total and subscale scores (pain, physical function and stiffness). Safety and injection site pain were also evaluated.
(§2) The study was conducted as a randomized, double-blind, placebo-controlled, single-dose trial of Resiniferatoxin. Eligible patients were aged 40 to 80 years with radiographic knee osteoarthritis (Kellgren-Lawrence Grade 2-4 in the last 3 years) and a baseline visual analog scale (0-100 mm) pain score ≥40 mm on motion in the target knee, with or without pain medication. 67 subjects were randomized to treatment with either Resiniferatoxin 100 ng (n=24) or 400 ng (n=23), or placebo (n=20), administered intraarticularly into the index knee. Intraarticular Ropivacaine (5 ml, 0.5%) was administered 15 mins before investigational medicinal product. Visual analog scale scores were used to evaluate pain on motion as the average of the last 2 days in a target knee between baseline and at 3 and 6 months post injection. Injection site pain was rated (visual analog scale) from baseline (−0.5 h) up to 3 h post intraarticular injections.

For series [2], the system named is moderate to severe pain due to osteoarthritis of the knee. Particulars: cited from earlier work.
For series [3], the system named is naturally-occurring canine osteoarthritis. As to conditions: single intraarticular injection of 10 μg; 7 dogs with osteoarthritis; cited from earlier work.
The nature of series [4]: Comparative study in rats: synovial fluid pharmacokinetics after intraarticular dosing. It counts as in vivo. Particulars: male, rat, 9.6 ng, across the three formulations. How it is done: (§3) Animals: 63 male rats (21 rats per formulation; plus an additional 3 animals as a replacement). Body weight: average 263 g (236-295 g). Dose (IA): ˜36.6 ng/kg=>9.6 ng/knee as an injection of 30 μL/knee of three various formulations with concentration 320 ng/mL. PK sampling: 7 timepoints: 10 min (animals not fully conscious between dosing and sampling), 20 min, 30 min, 1 h, 1.5 h, 2 h and 4 h (one sample per rat; 3 rats per timepoint) in plasma and synovial fluid. Tissue samples: at same time points as PK samples following tissue samples: meniscus, patella, femoral head and tibial plateau.
Sampling of synovial fluid: A 0.5 ml 28G Insulin syringes (fixed needle, no hub) were filled with 100 μl of the saline/EDTA solution. The skin was removed from the joint and then the needle was inserted through the patellar tendon into the joint space. The solution was then injected into the joint space, the knee was flexed a couple/few times (all with the needle still in the joint) and then was pulled back on the plunger to collected the mix of saline/EDTA and synovial fluid. The lavage fluid was then put into a microcentrifuge tube, it was spun to pellet any cells/debris and then the supernatant was collected.

The nature of series [5]: Human study: safety and injection site pain after intraarticular injection. It counts as in vivo. Particulars: for subjects with severe adverse events: none related to investigational medicinal product; for incidence of treatment emergent adverse events: placebo 75.0%. How it is done:
as §1, §2

The nature of series [6]: Comparative study in rats: knee tissue concentrations after intraarticular dosing. As to conditions: male, rat, knee tissues, across the three formulations. The format is in vivo. As to the method: as §3
Setting [7] is: single intraarticular doses 100 ng or 400 ng.

By half-life is commonly meant the time in which the quantity being followed falls by half. As to `C=C(C)[C@]12C[C@@H](C)[C@@]34O[C@](Cc5ccccc5)(O[C@@H]1[C@@H]3C=C(COC(=O)Cc1ccc(O)c(OC)c1)C[C@]1(O)C(=O)C(C)=C[C@@H]41)O2` [Resiniferatoxin, 4-hydroxy-3-methoxy-benzeneacetic acid, [(2S,3aR,3bS,6aR,9aR,9bR, 10R,11aR)-3a, 3b, 6,6a, 9a,10,11,11a-octahydro-6a-hydroxy-8,10-dimethyl-11a-(1-methylethenyl)-7-oxo-2-(phenylmethyl)-7H-2,9b-epoxyazuleno[5,4-e]-1,3-benzodioxol-5-yl]methyl ester], in series [1] (100 ng and 400 ng groups, at both 3 and 6 months), the “reduction in WOMAC total and subscale scores (pain, physical function and stiffness) versus placebo” value was “greater reduction”. Moreover, the “mean (SD) absolute reduction of visual analog scale score, pain on motion” value in series [1] (100 ng single intraarticular injection) is listed as 33.52 (22.89); in series [1] (400 ng single intraarticular injection) it was 41.48 (32.57). Moreover, the “analgesia evident during the follow-up period” value in series [1] (setting [7]) is “at least 3 months”. Moreover, the “analgesic onset after administration” value in series [1] (setting [7]) is “within one week”. Moreover, the “sustained pain relief (anecdotal long-term follow up)” value in series [2] (one-time intraarticular dose 5-30 μg) was > 365 days. Besides, the “safety as onetime intraarticular injection” value in series [2] (up to the planned highest dose of 30 μg) is given as “demonstrated safety”. In addition, in series [3], the analgesic effect entry was “significant and prolonged analgesic effect”. The half-life is ~1.5 h in series [4] (read-out: half-life in SF (converted)); 1.07 to 1.85 h in series [4] (read-out: half-life in SF (range)); ~1.5 h in series [6] (9.6 ng, read-out: half-life in the tissues (converted)); ~1.5 h in series [6] (other: intraarticular, 9.6 ng/knee, read-out: half-life in the tissues (converted)); 0.895 to 3.21 h in series [6] (other: intraarticular, 9.6 ng/knee, read-out: half-life in the tissues (range)). The figures for the “subjects with severe adverse events” value in series [5] (100 ng group (n=24)) and in series [5] (400 ng group (n=23)) were 2 subjects and 3 subjects, respectively. Besides, the “incidence of treatment emergent adverse events” value was found to be 62.5% in series [5] (100 ng group) and 78.3% in series [5] (400 ng group). Moreover, the “injection site pain (procedural pain) compared to placebo” value in series [5] (intraarticular, 100 or 400 ng, VAS up to 3 h post injection) was “generally higher”. Also, the “time of peak injection site pain post-injection” value in series [5] (moderate-severe intensity in some subjects) was “around 0.5 h”. Also, the “injection site pain return to baseline” value in series [5] (post-injection) is ≤ 3 h. Further, the “safety profile and tolerability” value in series [5] (setting [7]) is reported as “good safety profile”.
